Source: patent EP2039683B1, “Vasculostatic agents and methods of use thereof” (Targegen, Inc., priority 2002, dated 2004)

Legend:
histamine as agonist = assay: Miles assay, histamine as agonist; type: in vivo, Sprague-Dawley rats; settings: 1.5 mg/kg; histamine 10 µg/injection site; vehicle 12
Experimental: Sprague-Dawley rats were first injected IV with vehicle alone or test agent, followed by IV injection of Evans blue dye, followed by intradermal injections of saline and VEGF (200 ng/injection site) along both shaved flanks.
The ability of test agents to influence edema induced by agonists other than VEGF was also tested.
The ability of test agent to influence vascular edema was tested as above, except that the ability to block edema was tested using either VEGF or histamine as the agonist (200 ng and 10 µg/injection site, respectively).

[1] = Cerebral stroke model, permanent middle cerebral artery occlusion; type: in vivo, mice; settings: 1 mg/kg BW IV 60 min after ligation; for % Infarct reduction: versus vehicle of the same study; for Infarct area in mm^3 (mean ± SEM): twenty four hours later
Experimental: Cerebral strokes were created in mice by permanent ligation of the middle cerebral artery using a cauterizing tool, followed 60 min later by IV injection of either vehicle alone (50% PEG400 in water) or test agents (at 1 mg/kg BW). Twenty four hours later, brains were sectioned and stained using triphenyltetrazolium chloride to delineate viable from infarcted tissue.

angiogenesis = assay: Matrigel plug angiogenesis model, FITC-lectin quantification; type: in vivo, Athymic WeHi (nu/nu) mice; settings: 10 mg/kg intraperitoneally bid for four days; matrigel with 400 ng/ml bFGF or VEGF
Experimental: FIGURE 13 (omitted) and 14 (omitted) illustrate the effects of invention compounds for their capacity to inhibit angiogenesis in vivo. […] Tumor extracellular matrix infused with the 160 ng of the described growth factors were injected subcutaneously in a Balb/C mouse. The described invention compound was injected daily at the described concentration for 5 days. After 5 days the animals were sacrificed and angiogenesis quantified based on the binding of fluorescently labeled, endothelium specific FITC-lectin. In the graph, compound A is 6,7-bis(4-hydroxyphenyl)-pteridin-4-ylamine sulfate salt.
Referring to FIGURES 13 (omitted) and 14 (omitted), a murine model of angiogenesis was used to screen compounds for their capacity to inhibit angiogenesis. […] In the graph, compound A is 6,7-bis(4-hydroxyphenyl)-pteridin-4-ylamine sulfate salt. Athymic WeHi (nu/nu) mice were first injected with 400; jls of an ice- cold tumor-derived extracellular matrix substrate, matrigel (Becton-Dickinson) infused with 400 ng/ml of bFGF or VEGF (R & D Systems) which rapidly solidifies into a subdermal plug at body temperature. […] Twenty minutes after injection of the lectin, mice were euthanized, matrigel plugs were then extracted, solublized in PBS with mechanical grinding and the fluorescent content of individual plugs was quantified. […]

CTLL2 = assay: IL-2 dependent T-cell proliferation, XTT assay; type: cell-based, mouse; settings: 96 hours, 50 pg human recombinant IL-2
IL-2 induced VLS = assay: IL-2 induced vascular leak syndrome, organ wet/dry weight; settings: compound D in the 1 mg/kg range, compound E in the 0.1 mg/kg range; for reduction of VLS in the heart / reduction of VLS in the spleen: 9 injections of murine IL-2 and/or compound over 4 days
From the text: BalbC mice were given 9 injections of the indicated dose of murine IL-2 (in this example formulated in saline with 5% bovine serum albumin) and/or invention compounds over a period of 4 days. Animals were then sacrificed followed by collection, blotting and weighing (wet weight) of heart, lungs, and spleen.
BalbC mice were given 9 injections of the indicated dose of murine IL-2 and/or invention compounds over a period of 4 days. Animals were then sacrificed followed by collection, blotting and weighing (wet weight) of heart, lungs, and spleen.

[2] = Oleic acid induced ARDS lung edema, wet/dry weight; type: in vivo, NIH Swiss mice; settings: 0.5 mg/kg range; 1.5 mg/kg Oleic Acid intraperitoneal, lungs collected after four hours
Experimental: FIGURE 12 (omitted) illustrates the effects of invention compounds for their capacity to inhibit edema associated with Acute Respiratory Distress Syndrome (ARDS). NIH Swiss mice were given an intraperitoneal injection of 1.5 mg/kg Oleic Acid of (in this example formulated in saline) and/or invention compounds.
NIH Swiss mice were given an intraperitoneal injection of 1.5 mg/kg Oleic Acid of (in this example formulated in saline) and/or invention compounds.

O=C(Nc1cc2ccccc2[nH]1)c1cc(O)c(O)c(O)c1 [3,4,5-Trihydroxy-N-(1H-indol-2-yl)-benzamide]
Score with histamine as agonist (scale of 0-12) (histamine as agonist): 7

O=C(Nc1ccccc1-c1cc2ccccc2[nH]1)c1cc(O)c(O)c(O)c1 [3,4,5-Trihydroxy-N-[2-(1H-indol-2-yl)-phenyl]-benzamide]
Score with histamine as agonist (scale of 0-12) (histamine as agonist): 7

Oc1ncnc2nc(-c3ccccc3)c(-c3ccccc3)nc12 [6,7-Diphenyl-pteridin-4-ol]
Score with histamine as agonist (scale of 0-12) (histamine as agonist): 4

Cc1ccc(-c2nn(C(C)(C)C)c3ncnc(N)c23)cc1 [PP1, reference compound]
% Infarct reduction [1]: Not significant

CN(C)S(=O)(=O)c1ccc2c(c1)/C(=C/c1cc3c([nH]1)CCCC3)C(=O)N2 [SU6656, reference compound]
Infarct area in mm^3 (mean ± SEM) [1]: 24.3 ± 5.3 mm^3
% Infarct reduction [1]: Not significant

Nc1ncnc2nc(-c3ccc(O)cc3)c(-c3ccc(O)cc3)nc12.O=S(=O)(O)O [compound A, 6,7-bis(4-hydroxyphenyl)-pteridin-4-ylamine sulfate salt]
inhibition of angiogenesis in vivo (angiogenesis): successfully inhibited angiogenesis in vivo

O=C(O)c1ccccc1C(=O)Nc1ccccc1-c1cc2ccccc2[nH]1 [compound D]
impact on IL-2 induced T-cell proliferation (CTLL2; in the 1 mg/kg range as printed): no significant impact
reduction of VLS in the heart (IL-2 induced VLS): > 100%
reduction of VLS in the spleen (IL-2 induced VLS): > 100%
reducing VLS in vivo (IL-2 induced VLS): 80-100%
Infarct area in mm^3 (mean ± SEM) [1]: 15.6 ± 5.16 mm^3
% Infarct reduction [1]: 63%

Nc1nc(N)c2nc(-c3cccc(O)c3)c(-c3cccc(O)c3)nc2n1.O=S(=O)(O)O [compound E]
impact on IL-2 induced T-cell proliferation (CTLL2; in the therapeutic range (< 1pM)): no significant impact
reduction of VLS in the heart (IL-2 induced VLS): > 100%
reduction of VLS in the spleen (IL-2 induced VLS): > 100%
reducing VLS in vivo (IL-2 induced VLS): 80-100%

Nc1ncnc2nc(-c3ccc(O)c(O)c3)c(-c3ccc(O)c(O)c3)nc12 [compound F, 4-[4-amino-6-(3,4-dihydroxyphenyl)pteridin-7-yl]benzene-1,2-diol]
reduction of ARDS-induced edema [2]: > 100%
